Data: US20010011063A1, “Substituted 2,4-diamino-1,3,5-triazines, processes for their preparation and their use as herbicides and plant growth regulators” (priority 1999, published 2001)

Experiments:
Format in all cases: in vivo
[1] = test system: Sinapis alba, Echinochloa crus-galli, Lolium multiforum, Stellaria media, Cyperus iria, Amaranthus retroflexus, Settaria viridis and Avena sativa; assay: Post-emergence effect on weeds (greenhouse pot test); conditions: application rate of 1 kg or less of active substance per hectare; treated at the three-leaf stage; scored visually after about 3 to 4 weeks vs untreated controls
Protocol: Seeds or rhizome pieces of mono- and dicotyledonous weeds are placed in sandy loam soil in plastic pots, covered with soil and grown in a greenhouse under good growth conditions. Three weeks after sowing, the test plants are treated at the three-leaf stage. The compounds according to the invention, formulated as wettable powders or emulsion concentrates, are sprayed, at various dosages, onto the green parts of the plants at an application rate of 600 to 800 l of water/ha (converted). After the test plants had remained in the greenhouse for about 3 to 4 weeks under optimum growth conditions, the effect of the preparations is scored visually by comparison with untreated controls. The agents according to the invention also have good herbicidal activity post-emergence against a broad spectrum of economically important weed grasses and broad-leaved weeds.

[2] = test system: Cyperus monti, Echinochloa crus-galli and Sagitaria pygmaea; assay: Action on harmful plants in rice (paddy rice conditions); conditions: poured into the dammed water, visual scoring about three weeks after application; further: test concentration or dose not given here
Source text: Transplanted and sown rice and also typical rice weeds (gramineous and broad-leaved) are cultivated in closed plastic pots in a greenhouse to the three-leaf stage (Echinochloa crus-galli 1.5-leaf) under paddy rice conditions (height of water: 2-3 cm). This is followed by treatment with the compounds according to the invention. For this purpose, the formulated active compounds are suspended, dissolved or emulsified in water and applied by pouring them into the dammed water around the test plants in different dosages.

[3] = test system: Stellaria media, Lolium multiflorum, Amaranthus retroflexus, Sinapis alba, Avena sativa and Settaria viridis; assay: Pre-emergence effect on weeds (greenhouse pot test); conditions: application rate of 1 kg or less of active substance per hectare; visually scored after 3 to 4 weeks by comparison with untreated controls
Source text: Seeds or rhizome pieces of mono and dicotyledonous weed plants are placed in sandy loam soil in plastic pots and covered with soil. The compounds according to the invention which are formulated in the form of wettable powders or emulsion concentrates are then applied to the soil cover in the form of aqueous suspensions or emulsions at an application rate of 600 to 800 l of water/ha (converted), in various dosages.

Nc1nc(N[C@@H](CCCc2ccc(Cl)cc2Cl)C2CC2)nc(C(F)(F)F)n1 [Example 3-6]
very good herbicidal activity: herbicidal activity post-emergence against harmful plants [1] | herbicidal activity against harmful plants which are typical for rice crops [2] | herbicidal activity pre-emergence against harmful plants [3]

Cc1nc(N)nc(N[C@@H](CCCc2ccccc2)C2CC2)n1 [Example 3-8]
very good herbicidal activity: herbicidal activity post-emergence against harmful plants [1] | herbicidal activity against harmful plants which are typical for rice crops [2] | herbicidal activity pre-emergence against harmful plants [3]

CCc1nc(N)nc(N[C@@H](CCCc2ccccc2)C2CC2)n1 [Example 3-9]
very good herbicidal activity: herbicidal activity post-emergence against harmful plants [1] | herbicidal activity against harmful plants which are typical for rice crops [2] | herbicidal activity pre-emergence against harmful plants [3]

CC(C)c1nc(N)nc(N[C@@H](CCCc2ccccc2)C2CC2)n1 [Example 3-11]
very good herbicidal activity: herbicidal activity post-emergence against harmful plants [1] | herbicidal activity against harmful plants which are typical for rice crops [2] | herbicidal activity pre-emergence against harmful plants [3]

CC(C)(F)c1nc(N)nc(N[C@@H](CCCc2ccccc2)C2CC2)n1 [Example 3-12]
very good herbicidal activity: herbicidal activity post-emergence against harmful plants [1] | herbicidal activity against harmful plants which are typical for rice crops [2] | herbicidal activity pre-emergence against harmful plants [3]

CC(C)(F)c1nc(N)nc(N[C@@H](CCCc2cccc(Cl)c2)C2CC2)n1 [Example 3-18]
very good herbicidal activity: herbicidal activity post-emergence against harmful plants [1] | herbicidal activity against harmful plants which are typical for rice crops [2] | herbicidal activity pre-emergence against harmful plants [3]

CC(C)c1nc(N)nc(N[C@@H](CCCc2ccccc2)C2CCC2)n1 [Example 3-58]
very good herbicidal activity: herbicidal activity post-emergence against harmful plants [1] | herbicidal activity against harmful plants which are typical for rice crops [2] | herbicidal activity pre-emergence against harmful plants [3]

CC(C)Cc1nc(N)nc(NC(CCCc2ccccc2)C2CCC2)n1 (stereo not drawn) [Example 3-59]
very good herbicidal activity: herbicidal activity post-emergence against harmful plants [1] | herbicidal activity against harmful plants which are typical for rice crops [2] | herbicidal activity pre-emergence against harmful plants [3]

CC(C)(F)c1nc(N)nc(NC(CCCc2ccccc2)C2CCC2)n1 (stereo not drawn) [Example 3-64]
very good herbicidal activity: herbicidal activity post-emergence against harmful plants [1] | herbicidal activity against harmful plants which are typical for rice crops [2] | herbicidal activity pre-emergence against harmful plants [3]

CC(C)c1nc(N)nc(NC(CCCc2cccc(Cl)c2)C2CCC2)n1 (stereo not drawn) [Example 3-67]
very good herbicidal activity: herbicidal activity post-emergence against harmful plants [1] | herbicidal activity against harmful plants which are typical for rice crops [2] | herbicidal activity pre-emergence against harmful plants [3]

CC(C)(F)c1nc(N)nc(NC(CCCc2cccc(Cl)c2)C2CCC2)n1 (stereo not drawn) [Example 3-68]
very good herbicidal activity: herbicidal activity post-emergence against harmful plants [1] | herbicidal activity against harmful plants which are typical for rice crops [2] | herbicidal activity pre-emergence against harmful plants [3]

Cc1cccc(CCCC(Nc2nc(N)nc(C(C)C)n2)C2CCC2)c1 (stereo not drawn) [Example 3-71]
very good herbicidal activity: herbicidal activity post-emergence against harmful plants [1] | herbicidal activity against harmful plants which are typical for rice crops [2] | herbicidal activity pre-emergence against harmful plants [3]

Cc1cccc(CCCC(Nc2nc(N)nc(C(C)(C)F)n2)C2CCC2)c1 (stereo not drawn) [Example 3-72]
very good herbicidal activity: herbicidal activity post-emergence against harmful plants [1] | herbicidal activity against harmful plants which are typical for rice crops [2] | herbicidal activity pre-emergence against harmful plants [3]

COc1cccc(CCCC(Nc2nc(N)nc(C(C)C)n2)C2CCC2)c1 (stereo not drawn) [Example 3-75]
very good herbicidal activity: herbicidal activity post-emergence against harmful plants [1] | herbicidal activity against harmful plants which are typical for rice crops [2] | herbicidal activity pre-emergence against harmful plants [3]

COc1cccc(CCCC(Nc2nc(N)nc(C(C)(C)F)n2)C2CCC2)c1 (stereo not drawn) [Example 3-76]
very good herbicidal activity: herbicidal activity post-emergence against harmful plants [1] | herbicidal activity against harmful plants which are typical for rice crops [2] | herbicidal activity pre-emergence against harmful plants [3]

Nc1nc(NC(CCCc2ccc(Cl)cc2Cl)C2CC2)nc(C(F)(F)F)n1 (stereo not drawn) [Example 4-6]
very good herbicidal activity: herbicidal activity post-emergence against harmful plants [1] | herbicidal activity against harmful plants which are typical for rice crops [2] | herbicidal activity pre-emergence against harmful plants [3]

Cc1nc(N)nc(NC(CCCc2ccccc2)C2CC2)n1 (stereo not drawn) [Example 4-8]
very good herbicidal activity: herbicidal activity post-emergence against harmful plants [1] | herbicidal activity against harmful plants which are typical for rice crops [2] | herbicidal activity pre-emergence against harmful plants [3]

CCc1nc(N)nc(NC(CCCc2ccccc2)C2CC2)n1 (stereo not drawn) [Example 4-9]
very good herbicidal activity: herbicidal activity post-emergence against harmful plants [1] | herbicidal activity against harmful plants which are typical for rice crops [2] | herbicidal activity pre-emergence against harmful plants [3]

CC(C)c1nc(N)nc(NC(CCCc2ccccc2)C2CC2)n1 (stereo not drawn) [Example 4-11]
very good herbicidal activity: herbicidal activity post-emergence against harmful plants [1] | herbicidal activity against harmful plants which are typical for rice crops [2] | herbicidal activity pre-emergence against harmful plants [3]

CC(C)(F)c1nc(N)nc(N[C@H](CCCc2ccccc2)C2CC2)n1 [Example 4-12, 2-Amino-4-(1-fluoro-1-methylethyl)-6-[(1 R)4-phenyl-1-cyclopropylbutylamino]-1,3,5-triazine]
very good herbicidal activity: herbicidal activity post-emergence against harmful plants [1] | herbicidal activity against harmful plants which are typical for rice crops [2] | herbicidal activity pre-emergence against harmful plants [3]

CC(C)(F)c1nc(N)nc(NC(CCCc2cccc(Cl)c2)C2CC2)n1 (stereo not drawn) [Example 4-18]
very good herbicidal activity: herbicidal activity post-emergence against harmful plants [1] | herbicidal activity against harmful plants which are typical for rice crops [2] | herbicidal activity pre-emergence against harmful plants [3]
